Assay results as given in ChEMBL document CHEMBL3108768 (ACS Med Chem Lett, 2014).

Legend:
[1] = (§1) Inhibition of STX (unknown origin)-induced toxicity in human HeLa cells assessed as protection against toxin-induced inhibition of protein biosynthesis by measuring incorporation of [14C]-leucine into cells preincubated for 1 hr followed by toxin challenge measured after 20 hrs by liquid scintillation counting analysis; format: cell-based
HeLa = test: as §1, with “into cells at 30 uM preincubated for” for “into cells preincubated for”, “counting analysis relative to control” for “counting analysis”; format: cell-based

Compound	EC50 [1]	fold change (FC) (HeLa)
Cc1ccc(/C=N/c2ccccc2C(=O)Nc2ccccc2)s1	27000 nM	
Cc1nc(-c2ccc(C3N(C)c4ccc(F)cc4C(=O)N3c3ccccc3)s2)cs1 (racemic)	102 nM	
Cc1nc(-c2ccc([C@@H]3N(C)c4ccc(F)cc4C(=O)N3c3ccccc3)s2)cs1	2400 nM	68
Cc1nc(-c2ccc([C@H]3N(C)c4ccc(F)cc4C(=O)N3c3ccccc3)s2)cs1	54 nM	357
